Type in all cases: cell-based, human
One data set has as its system SFRP1. The data set can be described thus: qRT-PCR of SFRP1 expression in RL95-2 cells. To be noted: RL95-2, qRT-PCR normalized to 18S. The protocol:
(§1) Using RL95-2 endometrial cancer cells, we overexpressed PME-1 (FIG. 21A) or depleted PME-1 with shRNA targeted to PME-1 (SEQ ID NO: 2) (FIG. 21B) and confirmed that PME-1 was appropriately expressed.
(§2) Total RNA was extracted with Qiagen RNAEasy kit from RL95-2 cells. cDNA was synthesized using 500 ng-1 μg of RNA and SuperScript VILO c-DNA mix (Life Technologies). Taqman probes and PCR-mix were purchased from Life Technologies. All samples were run in triplicates. Results are representative of three independent experiments in which genes of interest were normalized to the house-keeping gene, 18S or GAPDH, where fold-change was calculated using the ddCt method.
In general terms: Real-time PCR tracks product formation cycle by cycle.

The next data set has as its system Akt. Put plainly: Western analysis of phospho-Akt in RL95-2 cells. To be noted: RL95-2, PME-1 knocked down. The protocol:
We observed a similar trend for the Akt signaling pathway. There was an increase in phosphorylation of Akt on threonine 308 (T308) when PME-1 was over-expressed compared to control. […] PME-1 over-expression specifically increases the phosphorylation of Akt on T308, but not serine 473 (S473).
(§3) 15 μg of protein was used for western analysis. PME-1 antibody (Santa Cruz) and COXIV (Cell Signaling Technologies) were used for detection of proteins and the blots were developed using chemiluminescence (Pierce ECL Western Blotting Substrate—Thermo Scientific) on the GE ImageQuant LAS 4000. For analysis of Akt, ERK, and β-catenin signaling in tissue culture, western analyses were completed as follows. RL95-2 cells stably infected with lentivirus expressing constructs were selected with puromycin (Invivogen). The cells were incubated with either 50 μM Akt inhibitor (LY 294002, Cell Signaling Technologies) or 40 μM ERK inhibitor (V0126, Cell Signaling Technologies) for 1-2 hours at 37° C. 1.5× Laemelli buffer (0.5 M Tris pH6.8, […], 10% sodium dodecyl sulfate, 100 mM EDTA) was used to prepare cell lysates. 20 μg of protein was used for western analysis. […]

The subject of the next data set is ECC-1 cells. Put plainly: Foci formation assay, ECC-1 cells. To be noted: ECC-1 stable clones, with empty FLAG, PP2A, PP4 or PP6 over-expression, 10 days, vs shSCR. The protocol:
FIG. 24 depicts results from a study in which stable clones of ECC-1 cells expressing non-targeting scrambled shRNA (shSCR, black bars) or shPPME-1 (white bars) (SEQ ID NO: 2) and were then transfected with FLAG empty vector, FLAG-PPP2CA, FLAG-PPP4C, or FLAG-PPP6C. Cells (3,000) were plated and were allowed to grow for 10 days. Colonies were then stained with crystal violet and counted. The control cells expressing shSCR and transfected with empty FLAG vector were normalized to 100% foci formation. […] Averages of 6 experiments are plotted and statistical significance was calculated with the Student's T test, where *p<0.05, **p<0.01, ***p<0.001.
We performed a foci formation analysis by transfecting: (i) empty FLAG vector, (ii) FLAG-PPP2CA, (iii) FLAG-PPP4C, or (iv) FLAG-PPP6C into ECC-1 cells that stably expressed either (i) shSCR (non-targeting shRNA, black bars) or (ii) shPPME1 (depletes PME-1 levels, white bars) (FIG. 24).
1,000 cells were plated in a six well tissue culture dish in selection media (to include 5 μg/ml puromycin) (InvivoGen). Cells were allowed to adhere and grow in a 5% CO2, 37° C. incubator for 10 to 14 days. Media was replaced every fourth day. Cells were stained with 1% crystal violet (Sigma Aldrich) for five minutes and rinsed with PBS. Colonies were counted and data is presented as the percentage of change compared to the control. […]

The next data set concerns WNT3A. Put plainly: qRT-PCR of WNT3A expression in RL95-2 cells. To be noted: RL95-2, qRT-PCR normalized to 18S. The protocol:
as §1, §2

A further data set has as its system ERK. The data set can be described thus: Western analysis of phospho-ERK in RL95-2 cells. To be noted: RL95-2, compared to control cells. The protocol:
15 μg of protein was used for western analysis. PME-1 antibody (Santa Cruz) and COXIV (Cell Signaling Technologies) were used for detection of proteins and the blots were developed using chemiluminescence (Pierce ECL Western Blotting Substrate—Thermo Scientific) on the GE ImageQuant LAS 4000. For analysis of Akt, ERK, and β-catenin signaling in tissue culture, western analyses were completed as follows. RL95-2 cells stably infected with lentivirus expressing constructs were selected with puromycin (Invivogen). The cells were incubated with either 50 μM Akt inhibitor (LY 294002, Cell Signaling Technologies) or 40 μM ERK inhibitor (V0126, Cell Signaling Technologies) for 1-2 hours at 37° C. 1.5× Laemelli buffer (0.5 M Tris pH6.8, […], 10% sodium dodecyl sulfate, 100 mM EDTA) was used to prepare cell lysates. 20 μg of protein was used for western analysis. Primary antibodies used were: P-Akt (Ser473), P-Akt (Thr308), pan-Akt, P-ERK (Thr202/204), total ERK (Cell Signaling Technologies), PME-1 (Santa Cruz), phospho-β-catenin (Ser45, Cell Signaling Technologies), phospho-β-catenin (Ser33/37/Thr41, Cell Signaling Technologies), β-catenin (Abcam), DcR2 (Abcam), and GAPDH (Abcam). All experiments were repeated several times with similar results.

In the next data set the test system is RL95-2 cells. Put plainly: BrDU incorporation assay, RL95-2 cells. To be noted: RL95-2, compared to scrambled shRNA control set to 100%. The protocol: To confirm our foci formation data that altering PME-1 levels in endometrial cancer cells affect their rate of cell proliferation, we conducted a BrDU incorporation assay. BrDU is incorporated into newly synthesized DNA and can be detected with antibodies; thus, increased BrDU incorporation correlates with an increased level of proliferation.
The BrDU Incorporation assay was completed with RL95-2 cell lines in media supplemented with 2.5 μg/ml puromycin. Cells were plated at 0.5×10^4 cells per well into a 96 well dish with 0% FBS and allowed to settle for 24 hours. The assay was completed as per kit instructions (Roche, Cell Proliferation ELISA, BrdU colorimetric cat. #11647229001). Briefly, 10 uM BrdU was added to the cells, 24 hours later cells were fixed and denatured with FixDenat from the kit and allowed to incubate with anti-BrdU antibody for up to two hours. Following the incubation and addition of the kit substrate, absorbances were read using FluoStar Galaxy.

In another data set the test system is PPME1 mRNA. Put plainly: qRT-PCR of PME-1 (PPME1) expression in RL95-2 cells. To be noted: RL95-2 cells stably expressing shRNA, vs shSCR. How it is done: as §1, §2
The next data set has as its system PME-1. Put plainly: Western blot of PME-1 protein in RL95-2 cells. To be noted: GAPDH loading control. How it is done: We prepared RL95-2 cell lines expressing empty vector (control), over-expressing PME-1 (+PME-1), or expressing shRNA against PPME1, the gene that codes for PME-1 protein (−PME-1). Using these cells, we confirmed the appropriate level of PME-1 via real-time RT-PCR (data not shown) and Western blot analysis (FIG. 8). GAPDH was used as a loading control.
We also prepared two different shRNAs targeted against PME-1.
as §3
In general terms: Immunoblotting shows a protein as a band on a membrane.

Entries after “also recorded” stand apart in the source; their conditions may differ.

The values below come from US9663789B2, “PME-1 as a biomarker to predict and diagnose endometrial and breast cancer and gene silencing of PME-1 to inhibit epithelial to mesenchymal transition” (MEDICAL DIAGNOSTIC LABORATORIES, LLC, priority 2013, dated 2017).

On to “shRNA (SEQ ID NO: 2): lentiviral shRNA against PPME1, target sequence SEQ ID NO: 2 GCAGCGATTATTAGTAGAGTT, bp 289-309; hairpin SEQ ID NO: 8 (CCGGGCAGCGATTATTAGTAGAGTTCTCGAGAACTCTACTAATAATCGCTGCTTTTT; listed as Homo sapiens)”, for which the SFRP1 expression entry in the data set with SFRP1 was “significantly increased; also recorded: significant increase in SFRP1 expression”. For the same substance, the “phosphorylation of Akt (Western)” value in the data set on Akt is “decrease in phosphorylation of Akt”. Moreover, the foci formation entry in the data set with ECC-1 cells (listed as shPPME1 (SEQ ID NO: 2)) is given as “significant decrease in foci formation”; in the data set with ECC-1 cells (listed as shPPME-1 (SEQ ID NO: 2)), “significant decrease in foci formed”. Besides, in the data set with WNT3A, the WNT3A expression entry is reported as “significantly decreased”. The “phospho-ERK (Western)” value in the data set with ERK is recorded as “decrease in phospho-ERK”. Besides, the “decrease in BrDU incorporation” value with RL95-2 cells was 40%. Also, in the data set with PPME1 mRNA, the “PME-1 knocked down (qRT-PCR, normalized to 18S)” value is greater than 50%. Further, in the data set with PME-1, the “PME-1 levels by Western blot analysis” value is reported as “significantly decreased PME-1 levels”.
